This is an account of results in ChEMBL document CHEMBL3868586, “Mansoins C-F, Oligomeric Flavonoid Glucosides Isolated from Mansoa hirsuta Fruits with Potential Anti-inflammatory Activity” (J Nat Prod, 2016).

In assay [1] the target is T1, Transcription factor p65 (Homo sapiens, UniProt Q04206). The assay can be described thus: Inhibition of NF-kappa-B p65 in human THP1 cells assessed as suppression of LPS-induced TNFalpha release preincubated for 3 hrs followed by LPS stimulation by ELISA. The format is cell-based, THP-1.
In assay [2] the target is T1, Transcription factor p65. The assay can be described thus: Inhibition of NF-kappa-B p65 in human THP1 cells assessed reduction in phosphorylated p65 levels at 50 uM preincubated for 3 hrs followed by LPS stimulation after 18 hrs by Western blot analysis. It counts as cell-based. The following applies: THP-1. (In general: In western blotting, separated proteins are transferred to a membrane and probed.)

Assay [3] deals with T1, Transcription factor p65. As to the kind of experiment: Inhibition of LPS-induced NF-kappa-B p65 phosphorylation in human THP1 cells at 50 uM preincubated for 3 hrs followed by LPS stimulation for 18 hrs. The following applies: THP-1.

The source made the active and inactive calls. The calls are words filed in the database; no cut-off is given here.

T1 sequence (Q04206 whole entry): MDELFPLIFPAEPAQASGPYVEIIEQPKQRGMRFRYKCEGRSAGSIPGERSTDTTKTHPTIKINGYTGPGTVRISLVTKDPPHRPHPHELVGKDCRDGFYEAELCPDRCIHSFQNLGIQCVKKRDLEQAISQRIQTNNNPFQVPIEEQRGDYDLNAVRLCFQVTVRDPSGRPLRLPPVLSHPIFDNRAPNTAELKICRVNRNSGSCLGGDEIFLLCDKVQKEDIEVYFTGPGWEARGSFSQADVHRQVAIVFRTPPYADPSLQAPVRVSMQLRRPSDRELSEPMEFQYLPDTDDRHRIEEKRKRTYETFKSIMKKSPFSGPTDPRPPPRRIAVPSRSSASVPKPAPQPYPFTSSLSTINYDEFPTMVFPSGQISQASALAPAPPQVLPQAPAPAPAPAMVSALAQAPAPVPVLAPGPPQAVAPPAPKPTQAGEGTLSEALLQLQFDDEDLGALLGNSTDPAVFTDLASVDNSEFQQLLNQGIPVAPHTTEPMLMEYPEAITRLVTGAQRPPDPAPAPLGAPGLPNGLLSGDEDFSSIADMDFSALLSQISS

Broadly, the IC50 is the concentration that gives 50% inhibition. With `O=C1C[C@@H](c2ccc(O)c(O[C@@H]3O[C@H](CO)[C@@H](O)[C@H](O)[C@H]3O)c2)Oc2c1c(O)c([C@H](CCc1ccc(O[C@@H]3O[C@H](CO)[C@@H](O)[C@H](O)[C@H]3O)cc1)c1ccc(O[C@@H]3O[C@H](CO)[C@@H](O)[C@H](O)[C@H]3O)cc1O[C@@H]1O[C@H](CO)[C@@H](O)[C@H](O)[C@H]1O)c(O)c2[C@@H](CCc1ccc(O[C@@H]2O[C@H](CO)[C@@H](O)[C@H](O)[C@H]2O)cc1)c1ccc(O[C@@H]2O[C@H](CO)[C@@H](O)[C@H](O)[C@H]2O)cc1O[C@@H]1O[C@H](CO)[C@@H](O)[C@H](O)[C@H]1O`, the IC50 at Transcription factor p65 [1] was 19.3 µM. For the same molecule, the inhibition result on Transcription factor p65 [2] and on Transcription factor p65 [3] was “Active” each time.
With `O=C1C[C@@H](c2ccc(O)c(O[C@@H]3O[C@H](CO)[C@@H](O)[C@H](O)[C@H]3O)c2)Oc2c1c(O)c([C@H](CCc1ccc(O)cc1)c1ccc(O)cc1O[C@@H]1O[C@H](CO)[C@@H](O)[C@H](O)[C@H]1O)c(O)c2[C@@H](CCc1ccc(O)cc1)c1ccc(O)cc1O[C@@H]1O[C@H](CO)[C@@H](O)[C@H](O)[C@H]1O`, the inhibition entry at Transcription factor p65 [2] and at Transcription factor p65 [3] was “Active” in each case.
